From publication PMC10725991, “Kaempferol is a novel antiviral agent against channel catfish virus infection through blocking viral attachment and penetration in vitro” (Frontiers in Veterinary Science, 2023)

Each molecule was assayed on CCO cells (assay: Compounds cytotoxicity assay (CCK-8 cell viability)). Conditions: channel catfish, 72 h.
Format: cell-based
Method: The cytotoxicity effects of the selected compounds were detected in CCO cells by the cell viability assay. In brief, the CCO cells were seeded in 96-well plates and cultured to reach approximately 90% confluence in each well at 28°C. Subsequently, the monolayer cells were exposed to a maintenance medium with the tested compounds at different concentrations or DMSO for 72 h. Cell Counting Kit-8 (Beyotime, China) was used to measure the cell viability according to the manufacturer’s protocol after 72 h incubation. The optical density at 450 nm was measured using a Spark microplate reader (TECAN, Switzerland). Then, the maximum safe concentration (≥ 90% cell survived, SC90) of compounds to CCO cells was calculated according to the cell viability.
All data were analyzed with GraphPad Prism 8.0. Viral titers were log10 transformed prior to statistical analyses. The SC90 values were calculated using probit analysis. The data are expressed as the arithmetic mean ± standard deviation (SD) and were analyzed by one-way ANOVA with multiple comparisons test. Statistical significance was defined as *p < 0.05, **p < 0.01.
Figure 1 Cytotoxicity assay. The CCO cells were treated with 12 tested compounds with different concentrations in a 96-well plate for 72 h, and then the cell viability was measured by CCK-8. (A) Kaempferol, (B) Tannic acid, (C) P-Coumaric acid, (D) Magnolol, (E) Baicalein, (F) Genistein, (G) Mangiferin, (H) Rosmarinic acid, (I) Artemisinin, (J) Myricetin, (K) Ginkgolic acid, (L) Shikonin. Data represent mean ± SD normalized to values for DMSO treated group. The SC90 was analyzed and calculated using probit analysis. TEXT PRINTED IN THE PICTURE: (A) Kaempferol: SC90 = 47.53 μg/ml | (B) Tannic acid: SC90 = 90.02 μg/ml | (C) P-Coumaric acid: SC90 ≥500 μg/ml | (D) Magnolol: SC90 = 10.02 μg/ml | (E) Baicalein: SC90 = 29.73 μg/ml | (F) Genistein: SC90 = 13.66 μg/ml | (G) Mangiferin: SC90 ≥500 μg/ml | (H) Rosmarinic acid: SC90 = 46.37 μg/ml | (I) Artemisinin: SC90 ≥500 μg/ml | (J) Myricetin: SC90 = 346.19 μg/ml | (K) Ginkgolic acid: SC90 = 10.89 μg/ml | (L) Shikonin: SC90 = 54.44 μg/ml DOUBTS OF THE COPYIST ABOUT THIS PICTURE: All SC90 values are in small print, so 3, 5, 6, 8 and 9 are hard to tell apart / Kaempferol, SC90: 47.53 (5 or 3 uncertain) / Tannic acid, SC90: 90.02 (9 or 8 uncertain) / Baicalein, SC90: 29.73 (9 or 3 uncertain) / Genistein, SC90: 13.66 (3 and 6 uncertain) / Rosmarinic acid, SC90: 46.37 (6 and 3 uncertain) / Myricetin, SC90: 346.19 (3, 6 and 9 uncertain) / Ginkgolic acid, SC90: 10.89 (8 and 9 uncertain) / Shikonin, SC90: 54.44 (5 uncertain) / P-Coumaric acid, Mangiferin, Artemisinin, SC90: sign ≥ or >; 500 (5 uncertain)

Row | SMILES | SC90 (maximum safe concentration, ≥ 90% cell survived) [µg/mL]
1 | C[C@@H]1CC[C@H]2[C@@H](C)C(=O)O[C@@H]3O[C@@]4(C)CC[C@@H]1[C@]32OO4 [Artemisinin, reference compound] | ≥ 500
2 | O=c1cc(-c2ccccc2)oc2cc(O)c(O)c(O)c12 [Baicalein] | 29.73
3 | O=c1c(O)c(-c2cc(O)c(O)c(O)c2)oc2cc(O)cc(O)c12 [Myricetin] | 346.19
